Measured values: the NIST ThermoML archive (doi:10.1021/acs.jced.9b00507)

Test: xn = mol fraction of the nth substance listed
Settings: 100 kPa, Liquid; for viscosity: Concentric cylinders viscometry; for mass density: Vibrating tube method

CCCCCCn1cc[n+](C)c1.O=[N+]([O-])[O-] [1-hexyl-3-methylimidazolium nitrate] + CCCCCCO
Settings	mass density [kg/m3]	viscosity [mPa·s]
293.15 K, x1 = 0.0816	859	12.97
293.15 K, x1 = 0.1604	894.1	24.15
293.15 K, x1 = 0.2391	925.7	39.81
293.15 K, x1 = 0.3502	965.4	76.74
293.15 K, x1 = 0.4409	994.2	123.03
293.15 K, x1 = 0.5592	1027.7	207.01
293.15 K, x1 = 0.6508	1050.9	296.48
293.15 K, x1 = 0.7395	1071.2	414.95
293.15 K, x1 = 0.8502	1093.7	581.11
293.15 K, x1 = 0.9391	1110	707.52
293.15 K, x1 = 1	1120.3	804.17
298.15 K, x1 = 0.0816	855.2	8.79
298.15 K, x1 = 0.1604	890.1	14.35
298.15 K, x1 = 0.2391	921.7	22.49
298.15 K, x1 = 0.3502	961.4	39.81
298.15 K, x1 = 0.4409	990.2	63.83
298.15 K, x1 = 0.5592	1023.9	109.9
298.15 K, x1 = 0.6508	1047.2	167.11
298.15 K, x1 = 0.7395	1067.7	243.78
298.15 K, x1 = 0.8502	1090.5	367.28
298.15 K, x1 = 0.9391	1107.1	473.22
298.15 K, x1 = 1	1117.5	545.25
303.15 K, x1 = 0.0816	851.5	6.53
303.15 K, x1 = 0.1604	886.2	10
303.15 K, x1 = 0.2391	917.6	15.42
303.15 K, x1 = 0.3502	957.2	26
303.15 K, x1 = 0.4409	986.1	39.54
303.15 K, x1 = 0.5592	1019.9	66.53
303.15 K, x1 = 0.6508	1043.3	101.16
303.15 K, x1 = 0.7395	1063.9	149.28
303.15 K, x1 = 0.8502	1087	233.88
303.15 K, x1 = 0.9391	1103.7	315.5
303.15 K, x1 = 1	1114.3	369.14
308.15 K, x1 = 0.0816	847.7	5.01
308.15 K, x1 = 0.1604	882.4	6.95
308.15 K, x1 = 0.2391	913.8	9.64
308.15 K, x1 = 0.3502	953.4	15.85
308.15 K, x1 = 0.4409	982.3	23.71
308.15 K, x1 = 0.5592	1016.1	40.36
308.15 K, x1 = 0.6508	1039.6	63.1
308.15 K, x1 = 0.7395	1060.2	95.67
308.15 K, x1 = 0.8502	1083.5	157.61
308.15 K, x1 = 0.9391	1100.4	216.41
308.15 K, x1 = 1	1111.1	257.59
313.15 K, x1 = 0.0816	843.9	3.92
313.15 K, x1 = 0.1604	878.5	5.11
313.15 K, x1 = 0.2391	909.9	6.87
313.15 K, x1 = 0.3502	949.6	10.64
313.15 K, x1 = 0.4409	978.5	15.42
313.15 K, x1 = 0.5592	1012.3	25.7
313.15 K, x1 = 0.6508	1035.8	40.74
313.15 K, x1 = 0.7395	1056.5	63.17
313.15 K, x1 = 0.8502	1079.9	107.2
313.15 K, x1 = 0.9391	1096.9	151.34
313.15 K, x1 = 1	1107.8	185.67
318.15 K, x1 = 0.0816	840.1	3.2
318.15 K, x1 = 0.1604	874.7	3.92
318.15 K, x1 = 0.2391	906.1	5.06
318.15 K, x1 = 0.3502	945.8	7.53
318.15 K, x1 = 0.4409	974.8	10.79
318.15 K, x1 = 0.5592	1008.7	18.71
318.15 K, x1 = 0.6508	1032.2	29.04
318.15 K, x1 = 0.7395	1053.1	46.03
318.15 K, x1 = 0.8502	1076.5	78.87
318.15 K, x1 = 0.9391	1093.7	114.4
318.15 K, x1 = 1	1104.7	140.18
323.15 K, x1 = 0.0816	836.2	2.63
323.15 K, x1 = 0.1604	870.7	3.1
323.15 K, x1 = 0.2391	902.2	3.84
323.15 K, x1 = 0.3502	942	5.55
323.15 K, x1 = 0.4409	971	8.02
323.15 K, x1 = 0.5592	1005	13.49
323.15 K, x1 = 0.6508	1028.7	21.63
323.15 K, x1 = 0.7395	1049.5	36.13
323.15 K, x1 = 0.8502	1073.1	63.1
323.15 K, x1 = 0.9391	1090.4	91.12
323.15 K, x1 = 1	1101.6	110.94

CCCCCCn1cc[n+](C)c1.O=[N+]([O-])[O-] [1-hexyl-3-methylimidazolium nitrate] + CCCCCCCCCCO
Settings	mass density [kg/m3]	viscosity [mPa·s]
293.15 K, x1 = 0.0818	855.4	18.62
293.15 K, x1 = 0.1583	879.2	24.27
293.15 K, x1 = 0.2414	904.7	33.34
293.15 K, x1 = 0.3482	937.1	50.7
293.15 K, x1 = 0.4414	964.8	73.79
293.15 K, x1 = 0.5593	999.2	119.12
293.15 K, x1 = 0.6481	1024.6	173.38
293.15 K, x1 = 0.7414	1050.8	261.82
293.15 K, x1 = 0.8496	1080.4	419.76
293.15 K, x1 = 0.9402	1104.7	625.17
293.15 K, x1 = 1	1120.3	804.17
298.15 K, x1 = 0.0818	851.9	15
298.15 K, x1 = 0.1583	875.7	18.75
298.15 K, x1 = 0.2414	901.3	23.93
298.15 K, x1 = 0.3482	933.6	33.81
298.15 K, x1 = 0.4414	961.4	47.42
298.15 K, x1 = 0.5593	995.8	74.3
298.15 K, x1 = 0.6481	1021.3	111.69
298.15 K, x1 = 0.7414	1047.5	171
298.15 K, x1 = 0.8496	1077.3	276.06
298.15 K, x1 = 0.9402	1101.7	417.45
298.15 K, x1 = 1	1117.5	545.25
303.15 K, x1 = 0.0818	848.4	11.86
303.15 K, x1 = 0.1583	872.2	14.39
303.15 K, x1 = 0.2414	897.7	17.58
303.15 K, x1 = 0.3482	930	22.91
303.15 K, x1 = 0.4414	957.8	30.27
303.15 K, x1 = 0.5593	992.2	45.39
303.15 K, x1 = 0.6481	1017.7	65.77
303.15 K, x1 = 0.7414	1044	98.7
303.15 K, x1 = 0.8496	1073.9	168.66
303.15 K, x1 = 0.9402	1098.4	267.65
303.15 K, x1 = 1	1114.3	369.14
308.15 K, x1 = 0.0818	845	9.51
308.15 K, x1 = 0.1583	868.7	10.86
308.15 K, x1 = 0.2414	894.2	12.85
308.15 K, x1 = 0.3482	926.4	16.03
308.15 K, x1 = 0.4414	954.2	20.04
308.15 K, x1 = 0.5593	988.6	28.44
308.15 K, x1 = 0.6481	1014.2	39.63
308.15 K, x1 = 0.7414	1040.5	60.67
308.15 K, x1 = 0.8496	1070.5	108.57
308.15 K, x1 = 0.9402	1095.1	183.87
308.15 K, x1 = 1	1111.1	257.59
313.15 K, x1 = 0.0818	841.4	7.41
313.15 K, x1 = 0.1583	865.1	8.15
313.15 K, x1 = 0.2414	890.6	8.97
313.15 K, x1 = 0.3482	922.8	10.16
313.15 K, x1 = 0.4414	950.5	11.94
313.15 K, x1 = 0.5593	984.9	16.52
313.15 K, x1 = 0.6481	1010.5	23.5
313.15 K, x1 = 0.7414	1036.9	35.97
313.15 K, x1 = 0.8496	1067	67.47
313.15 K, x1 = 0.9402	1091.7	123.98
313.15 K, x1 = 1	1107.8	185.67
318.15 K, x1 = 0.0818	837.9	5.98
318.15 K, x1 = 0.1583	861.6	6.21
318.15 K, x1 = 0.2414	887	6.44
318.15 K, x1 = 0.3482	919.2	7.1
318.15 K, x1 = 0.4414	946.9	8.12
318.15 K, x1 = 0.5593	981.4	9.93
318.15 K, x1 = 0.6481	1007	13.43
318.15 K, x1 = 0.7414	1033.5	22.34
318.15 K, x1 = 0.8496	1063.7	47.97
318.15 K, x1 = 0.9402	1088.5	92.14
318.15 K, x1 = 1	1104.7	140.18
323.15 K, x1 = 0.0818	834.4	4.95
323.15 K, x1 = 0.1583	858	5.14
323.15 K, x1 = 0.2414	883.4	5.28
323.15 K, x1 = 0.3482	915.6	5.6
323.15 K, x1 = 0.4414	943.3	6.07
323.15 K, x1 = 0.5593	977.8	7.03
323.15 K, x1 = 0.6481	1003.5	9.04
323.15 K, x1 = 0.7414	1030	15.67
323.15 K, x1 = 0.8496	1060.4	36.3
323.15 K, x1 = 0.9402	1085.3	73.7
323.15 K, x1 = 1	1101.6	110.94
